From patent US9056844B2, “4-substituted-3-benzyloxy-bicyclo[3.1.0]hexane compounds as mGluR 2/3 antagonists” (Eli Lilly and Company, priority 2010, dated 2015)

How the values were obtained:
male NIH-Swiss mice = experiment: Forced-swim test in mice (mFST); type: in vivo, mouse; details: for ED60: Mus musculus, immobility in last 4 min of 6 min; for Maximal Decrease (1 − compound/control) * 100%: immobility time
Excerpt: Forced-Swim Test in Mice (mFST)
mFST is an established in vivo assay for antidepressant activity (Li et al. J Pharmacol Exp Ther. 319(1):254-9, 2006.). […] The mFST was used to evaluate potential antidepressant-like activity of novel mGlu2/3 antagonists essentially as described in previously published methods (see for example, Li et al. J Pharmacol Exp Ther. 319(1):254-9, 2006.). Briefly, male NIH-Swiss mice (Harlan Sprague-Dawley, Indianapolis, Ind.) weighing between 25-30 g are used. Group housed animals are removed from the vivarium to the testing area in their own cages and allowed to adapt to the new environment for at least 1 hour before testing. Compounds where R^1 and R^2 are both hydrogen are dissolved in water with minimal NaOH added for dissolution and are administered i.p. Compounds where R^1 and/or R^2 are other than hydrogen are prepared on the day of use in 2.0-2.5% N-methyl-pyrrolidinone and then suspended in 1% HEC, 0.25% Tween 80, and 0.05% Dow antifoam, and administered orally. Mice are placed in a cylinder (diameter: 10 cm; height: 25 cm) filled with 6 cm of water (22-25° C.) for 6 min. The duration of immobility during the last 4 min. of the 6 min. period of the test was scored. A mouse is recorded as immobile when floating motionless or making only those movements necessary to keep its head above water.

human mGlu6 receptor = target: T1, human mGlu6 receptor (Homo sapiens, UniProt O15303); experiment: mGlu6 cAMP antagonist assay (reference agonist L-AP4); type: cell-based; details: cAMP format
T1 construct: expressed in transfected cells; host or cells: AV12 cells, co-expressing rat EAAT1
Excerpt: FLIPR and cAMP Assays for mGlu Receptor Selectivity
The relative antagonist potencies of the compounds of the invention for the other human mGlu receptors can be assessed with either a cAMP assay or fluorometric calcium response assay (see for example Fell et al., JPET (in press)). Briefly, individual AV12 cell lines containing the rat EAAT1 glutamate transporter and stably expressing the human mGlu1, 2, 3, 4, 5, 6, & 8 receptors are used for these studies. The mGlu1 and 5 receptors are […], so they naturally signal through phospholipase C, producing a calcium flux response which can be used to measure receptor activation using a Fluorometric Imaging Plate Reader (FLIPR, Molecular Devices). The cell lines expressing the mGlu2, 3, 4, and 8 receptor are designed to express the Gα15 subunit so that these Gi-coupled receptors will generate a calcium flux response similar to the mGlu1 and 5 receptor expressing cell lines. The mGlu6 receptor is tested in a cAMP format using methods analogous to those developed for mGlu2 and mGlu3 above. These cell lines are maintained as previously described except that amounts of L-glutamine and selection agents (geneticin, hygromycin B, zeocin, and blasticidin) may vary depending on the cell line. Confluent cultures are passaged biweekly.
Antagonist activity in mGlu6 cells is measured using cAMP in a method analogous to that described above for mGlu2 and mGlu3 activity, except that the reference agonist was L-AP4 (Tocris). […] Relative IC50 and EC50 values are calculated from the top-bottom range of the concentration response curve using a four-parameter logistic curve fitting program (ActivityBase v5.3.1.22).

human mGlu3 receptors = target: T2, human mGlu3 receptors (Homo sapiens, UniProt Q14832); experiment: mGlu3 receptor cAMP antagonist assay; type: cell-based; details: reversal of DCG IV (EC90) inhibition of forskolin-stimulated cAMP; AV12 cells
T2 construct: expressed in transfected cells; host or cells: AV12 cells, co-expressing rat EAAT1
Experimental: (§1) mGlu2 and mGlu3 Receptor cAMP Antagonist Assays
Antagonist activity is assayed in recombinant AV12 cells stably expressing human mGlu2 or mGlu3 receptors and the rat glutamate transporter EAAT1 (Excitatory Amino Acid Transporter 1). The cell lines are maintained by culturing in DMEM with high glucose and pyridoxine hydrochloride supplemented with 5% dialyzed fetal bovine serum (FBS), 1 mM sodium pyruvate, 1 mM HEPES and 1 mM L-glutamine; geneticin and hygromycin B are used as selection antibiotics. Confluent cultures are grown at 37° C. in an atmosphere containing 6.5% CO2, and passaged biweekly. Cells are harvested using 0.25% trypsin, suspended in freeze media (FBS with 10% DMSO) at 10^7 cells/ml, and aliquots are stored in liquid nitrogen. Twenty-four hours before the assay, cells are plated at a density of 8,000-10,000 cells per well in a tissue culture treated, 96-well, half-area black plates (Costar 3875) in 50 μl of DMEM with high glucose and pyridoxine hydrochloride supplemented with 5% dialyzed FBS, 1 mM sodium pyruvate, 1 mM HEPES, 100 μg/ml ampicillin, and 250 μM (mGlu2) or 125 μM (mGlu3) of L-glutamine.
Reversal of the inhibition of forskolin-stimulated cAMP production by test compounds is measured using homogeneous time resolved fluorescence technology (HTRF; Cisbio cat #62AM4PEB). The medium is removed and the cells are incubated with 100 μl cAMP stimulation buffer (STIM) for 30 minutes at 37° C. (STIM buffer contains 500 ml HBSS, 1000 ml DPBS, 0.034% BSA, 1.67 mM HEPES and 500 μM IBMX (Sigma 15879).) Compounds are tested in 10-point concentration response curves using 3× serial dilution followed by further 40-fold dilution into STIM buffer. DCG IV (Tocris 0975) serves as the reference agonist. The final reaction mixture contains 1 μM (for mGlu2) or 3 μM (for mGlu3) of forskolin (Sigma F6886), DCG IV at its EC90, and up to 25 μM of test compound. Cells are incubated at 37° C. for 20 minutes. To measure the cAMP levels, cAMP-d2 conjugate and anti cAMP-cryptate conjugate in lysis buffer are incubated with the treated cells at room temperature for 1 hour (mGlu2) or 1.5 hour (mGlu3). The HTRF signal is detected using an EnVision plate reader (Perkin-Elmer) to calculate the ratio of fluorescence at […]. The raw data are converted to cAMP amount (pmole/well) using a cAMP standard curve generated for each experiment. Relative IC50 values are calculated from the top-bottom range of the concentration response curve using a four-parameter logistic curve fitting program (ActivityBase v5.3.1.22).

human mGlu2 receptors = target: T3, human mGlu2 receptors (Homo sapiens, UniProt Q14416); experiment: mGlu2 receptor cAMP antagonist assay; type: cell-based; details: reversal of DCG IV (EC90) inhibition of forskolin-stimulated cAMP; AV12 cells
T3 construct: expressed in transfected cells; host or cells: AV12 cells, co-expressing rat EAAT1
Experimental: as §1
Antagonist activity is assayed in recombinant AV12 cells stably expressing human mGlu2 or mGlu3 receptors and the rat glutamate transporter EAAT1 (Excitatory Amino Acid Transporter 1). The cell lines are maintained by culturing in DMEM with high glucose and pyridoxine hydrochloride supplemented with 5% dialyzed fetal bovine serum (FBS), 1 mM sodium pyruvate, 1 mM HEPES and 1 mM L-glutamine; geneticin and hygromycin B are used as selection antibiotics.
Reversal of the inhibition of forskolin-stimulated cAMP production by test compounds is measured using homogeneous time resolved fluorescence technology (HTRF; Cisbio cat #62AM4PEB). The medium is removed and the cells are incubated with 100 μl cAMP stimulation buffer (STIM) for 30 minutes at 37° C. […] Cells are incubated at 37° C. for 20 minutes. To measure the cAMP levels, cAMP-d2 conjugate and anti cAMP-cryptate conjugate in lysis buffer are incubated with the treated cells at room temperature for 1 hour (mGlu2) or 1.5 hour (mGlu3). […] The raw data are converted to cAMP amount (pmole/well) using a cAMP standard curve generated for each experiment. Relative IC50 values are calculated from the top-bottom range of the concentration response curve using a four-parameter logistic curve fitting program (ActivityBase v5.3.1.22).

mice = experiment: mFST with SSRI (fluoxetine combination); type: in vivo, mouse; details: Example 10 17 mg/kg p.o., fluoxetine 10 mg/kg i.p., alone or combined
Experimental: mFST is an established in vivo assay for antidepressant activity (Li et al. J Pharmacol Exp Ther. 319(1):254-9, 2006.). […] J Pharmacol Exp Ther. 319(1):254-9, 2006.). Briefly, male NIH-Swiss mice (Harlan Sprague-Dawley, Indianapolis, Ind.) weighing between 25-30 g are used. Group housed animals are removed from the vivarium to the testing area in their own cages and allowed to adapt to the new environment for at least 1 hour before testing. Compounds where R^1 and R^2 are both hydrogen are dissolved in water with minimal NaOH added for dissolution and are administered i.p. […] Mice are placed in a cylinder (diameter: 10 cm; height: 25 cm) filled with 6 cm of water (22-25° C.) for 6 min. The duration of immobility during the last 4 min. of the 6 min. period of the test was scored. A mouse is recorded as immobile when floating motionless or making only those movements necessary to keep its head above water. The compounds of the invention may also be tested in combination with other compounds useful for the treatment of depressive disorders, as for example SSRI's, for their ability to enhance the antidepressant-like effects over that of either compound alone.

T3 sequence (Q14416 19-872): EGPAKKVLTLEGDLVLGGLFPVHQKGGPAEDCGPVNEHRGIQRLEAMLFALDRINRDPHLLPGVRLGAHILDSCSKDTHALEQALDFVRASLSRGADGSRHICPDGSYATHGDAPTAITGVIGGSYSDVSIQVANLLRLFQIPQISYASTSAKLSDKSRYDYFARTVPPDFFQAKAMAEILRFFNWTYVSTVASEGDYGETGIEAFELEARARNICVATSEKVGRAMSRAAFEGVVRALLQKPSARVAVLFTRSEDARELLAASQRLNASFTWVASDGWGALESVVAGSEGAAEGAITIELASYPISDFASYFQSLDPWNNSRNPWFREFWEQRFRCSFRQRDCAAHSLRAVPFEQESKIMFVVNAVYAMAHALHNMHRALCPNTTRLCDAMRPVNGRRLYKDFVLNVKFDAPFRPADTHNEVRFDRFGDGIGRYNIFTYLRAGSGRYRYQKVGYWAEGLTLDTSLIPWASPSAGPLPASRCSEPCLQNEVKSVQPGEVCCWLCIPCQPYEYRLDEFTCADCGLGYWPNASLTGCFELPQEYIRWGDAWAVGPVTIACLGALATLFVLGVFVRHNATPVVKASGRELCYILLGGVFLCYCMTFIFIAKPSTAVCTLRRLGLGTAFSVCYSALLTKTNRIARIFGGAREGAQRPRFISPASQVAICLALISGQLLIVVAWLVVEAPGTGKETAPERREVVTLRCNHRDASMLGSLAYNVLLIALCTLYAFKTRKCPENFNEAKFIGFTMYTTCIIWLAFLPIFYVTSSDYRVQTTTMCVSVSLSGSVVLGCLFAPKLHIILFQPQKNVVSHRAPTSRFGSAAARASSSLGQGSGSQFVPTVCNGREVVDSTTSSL
T2 sequence (Q14832 23-879): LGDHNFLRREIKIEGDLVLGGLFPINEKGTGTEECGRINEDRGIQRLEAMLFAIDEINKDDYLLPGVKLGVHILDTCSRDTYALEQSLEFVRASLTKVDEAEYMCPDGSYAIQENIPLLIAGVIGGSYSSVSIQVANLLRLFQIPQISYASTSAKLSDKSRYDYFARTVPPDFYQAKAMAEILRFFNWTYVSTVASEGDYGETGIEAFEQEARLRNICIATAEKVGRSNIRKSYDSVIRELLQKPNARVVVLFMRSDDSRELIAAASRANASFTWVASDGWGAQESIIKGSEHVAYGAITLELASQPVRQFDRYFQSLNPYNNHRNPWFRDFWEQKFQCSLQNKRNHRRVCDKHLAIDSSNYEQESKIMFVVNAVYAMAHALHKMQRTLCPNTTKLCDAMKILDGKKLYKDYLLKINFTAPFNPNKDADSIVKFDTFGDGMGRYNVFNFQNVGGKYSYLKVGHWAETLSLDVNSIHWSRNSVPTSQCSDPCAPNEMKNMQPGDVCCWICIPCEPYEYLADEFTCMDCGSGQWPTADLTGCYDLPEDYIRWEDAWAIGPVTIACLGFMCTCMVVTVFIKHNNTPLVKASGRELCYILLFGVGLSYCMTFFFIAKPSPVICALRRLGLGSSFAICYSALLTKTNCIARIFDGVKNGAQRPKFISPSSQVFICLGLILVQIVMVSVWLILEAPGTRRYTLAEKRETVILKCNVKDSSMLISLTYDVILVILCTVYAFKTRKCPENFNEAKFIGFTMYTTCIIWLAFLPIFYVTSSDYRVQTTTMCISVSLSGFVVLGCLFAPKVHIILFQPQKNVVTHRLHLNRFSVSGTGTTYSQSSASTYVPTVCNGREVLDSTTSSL
T1 sequence (O15303 25-877): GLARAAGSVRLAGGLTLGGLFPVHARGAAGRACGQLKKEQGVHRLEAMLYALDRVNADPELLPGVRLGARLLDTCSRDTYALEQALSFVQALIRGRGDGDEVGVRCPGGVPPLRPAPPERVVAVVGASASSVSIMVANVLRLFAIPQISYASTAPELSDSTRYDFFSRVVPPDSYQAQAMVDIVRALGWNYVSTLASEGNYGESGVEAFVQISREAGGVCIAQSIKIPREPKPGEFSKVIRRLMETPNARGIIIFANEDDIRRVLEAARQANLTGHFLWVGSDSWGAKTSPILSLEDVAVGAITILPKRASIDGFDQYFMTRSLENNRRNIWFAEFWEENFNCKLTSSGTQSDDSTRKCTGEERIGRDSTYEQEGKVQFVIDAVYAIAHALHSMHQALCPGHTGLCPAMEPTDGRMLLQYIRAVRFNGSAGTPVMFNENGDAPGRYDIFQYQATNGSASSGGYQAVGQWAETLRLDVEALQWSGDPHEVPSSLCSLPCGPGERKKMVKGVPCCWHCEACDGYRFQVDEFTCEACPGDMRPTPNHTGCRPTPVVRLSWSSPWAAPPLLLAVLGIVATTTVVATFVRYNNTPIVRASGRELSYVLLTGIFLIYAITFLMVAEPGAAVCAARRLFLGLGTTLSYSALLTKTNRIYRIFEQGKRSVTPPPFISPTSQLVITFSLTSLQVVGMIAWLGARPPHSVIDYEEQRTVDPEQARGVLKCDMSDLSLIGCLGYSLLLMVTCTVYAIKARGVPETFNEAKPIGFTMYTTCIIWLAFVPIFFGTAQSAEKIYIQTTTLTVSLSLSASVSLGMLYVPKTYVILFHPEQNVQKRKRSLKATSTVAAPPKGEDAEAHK

Compound	ED60 (male NIH-Swiss mice; ip) [mg/kg]	Maximal Decrease (1 − compound/control) * 100% (male NIH-Swiss mice; i.p.) [%]	IC50 (human mGlu6 receptor) [nM]	IC50 (human mGlu3 receptors) [nM]	IC50 (human mGlu2 receptors) [nM]	ED60 (male NIH-Swiss mice; po) [mg/kg]	Maximal Decrease (1 − compound/control) * 100% (male NIH-Swiss mice; p.o.) [%]	Maximal Decrease (1 − compound/control) * 100% (mice) [%]	Immobilization Time (mice; vehicle 174) [s]
COC(=O)N[C@H]1[C@H]2[C@H](C(=O)O)[C@H]2[C@](N)(C(=O)O)[C@@H]1OCc1ccc(Cl)c(Cl)c1 [Example 5, (1S,2R,3R,4S,5R,6S)-2-Amino-3-[(3,4-dichlorobenzyl)oxy]-4-[(methoxycarbonyl)amino]bicyclo[3.1.0]hexane-2,6-dicarboxylic acid]	7.45	56	1580 ± 141	9.5 ± 4.6	16.8 ± 1.6	–	–	–	–
CCOC(=O)OCOC(=O)[C@H]1[C@@H]2[C@H](O)[C@@H](OCc3ccc(Cl)c(Cl)c3)[C@@](N)(C(=O)OCOC(=O)OCC)[C@H]12.Cl [Example 11, Bis{[(ethoxycarbonyl)oxy]methyl} (1S,2R,3S,4S,5R,6R)-2-amino-3-[(3,4-dichlorobenzyl)oxy]-4-hydroxybicyclo[3.1.0]hexane-2,6-dicarboxylate hydrochloride]	–	–	–	–	–	51.5	32.9	–	–
CNCCC(Oc1ccc(C(F)(F)F)cc1)c1ccccc1 (stereo not drawn) [Fluoxetine, fluoxetine, reference compound]	–	–	–	–	–	–	–	7.6	161
N[C@]1(C(=O)O)[C@@H]2[C@@H](C(=O)O)[C@@H]2[C@H](Sc2nccs2)[C@H]1OCc1ccc(Cl)c(Cl)c1 [Example 3, (1R,2R,3S,4S,5R,6R)-2-Amino-3-[(3,4-dichlorobenzyl)oxy]-4-(1,3-thiazol-2-ylsulfanyl)bicyclo[3.1.0]hexane-2,6-dicarboxylic acid]	8.2	47	2480 ± 295	10.8	25.4 ± 4.8	–	–	–	–
CC(C)C(=O)OCOC(=O)[C@H]1[C@@H]2[C@H](O)[C@@H](OCc3ccc(Cl)c(Cl)c3)[C@@](N)(C(=O)OCOC(=O)C(C)C)[C@H]12.Cl [Example 12, Bis{[(2-methylpropanoyl)oxy]methyl} (1S,2R,3S,4S,5R,6R)-2-amino-3-[(3,4-dichlorobenzyl)oxy]-4-hydroxybicyclo[3.1.0]hexane-2,6-dicarboxylate hydrochloride]	–	–	–	–	–	> 28	7	–	–
Cl.Cn1ncnc1S[C@H]1[C@H]2[C@H](C(=O)O)[C@H]2[C@](N)(C(=O)O)[C@@H]1OCc1ccc(Cl)c(Cl)c1 [Example 6, (1R,2R,3S,4S,5R,6R)-2-amino-3-[(3,4-dichlorobenzyl)oxy]-4-[(1-methyl-1H-1,2,4-triazol-5-yl)sulfanyl]bicyclo[3.1.0]hexane-2,6-dicarboxylic acid hydrochloride]	7.3	47	1360 ± 433	13.9 ± 2.4	18.6 ± 3.9	–	–	–	–
Cl.N[C@]1(C(=O)O)[C@@H]2[C@@H](C(=O)O)[C@@H]2[C@H](Sc2ncc[nH]2)[C@H]1OCc1ccc(Cl)c(Cl)c1 [Example 8, (1R,2R,3S,4S,5R,6R)-2-Amino-3-[(3,4-dichlorobenzyl)oxy]-4-(1H-imidazol-2-ylsulfanyl)bicyclo[3.1.0]hexane-2,6-dicarboxylic acid hydrochloride]	9.1	41	2580	26 ± 0.5	–	–	–	–	–
Cl.N[C@]1(C(=O)OCOC(=O)C2CC2)[C@@H]2[C@@H](C(=O)OCOC(=O)C3CC3)[C@@H]2[C@H](O)[C@H]1OCc1ccc(Cl)c(Cl)c1 [Example 13, Bis{[(cyclopropylcarbonyl)oxy]methyl} (1S,2R,3S,4S,5R,6R)-2-amino-3-[(3,4-dichlorobenzyl)oxy]-4-hydroxybicyclo[3.1.0]hexane-2,6-dicarboxylate hydrochloride]	–	–	–	–	–	11.3	62.8	–	–
